Values quoted from earlier work, collected in patent US20200317616A1, “Crystalline Form of Betrixaban Maleate” (Apotex Inc., priority 2019, published 2020).
Structures can show the parent of a compound that is named as a salt.

Key:
[1] = labelling of BEVYXXA
[2] = anhydrous form, CDER review NDA 208383
[3] = anhydrous form, CDER review NDA 208383; remark: listed apart in the source

oral bioavailability [1] [%]	permeability [2]	solubility [3]	SMILES
34	–	–	COc1ccc(NC(=O)c2ccc(C(=N)N(C)C)cc2)c(C(=O)Nc2ccc(Cl)cn2)c1 [Betrixaban, N-(5-chloropyridin-2-yl)-2-[4-(N,N-dimethylcarbamimidoyl)-benzoylamino]-5-methoxybenzamide]
–	low	high	COc1ccc(NC(=O)c2ccc(C(=N)N(C)C)cc2)c(C(=O)Nc2ccc(Cl)cn2)c1 [Betrixaban maleate]
